Read-outs that look alike come from different tables or passages of the source.
Columns and labels:
[1] = system: LNCaP cells; assay: Internalization into LNCaP cells, relative cellular uptake to ([^125I]I-BA)KuE; assay type: cell-based; details: c = 1.0 nM ^177Lu-labeled inhibitor, 37° C., 60 min, corrected for non-specific binding (10 μM 2-PMPA), mean ± SD (n = 3)
Procedure: PSMA-positive LNCAP cells (300265; Cell Lines Service GmbH) were cultivated in Dulbecco modified Eagle medium/Nutrition Mixture F-12 (1/1) (DMEM-F12, Biochrom) supplemented with fetal calf serum (FCS) (10%, Biochrom) and kept at 37° C. in a humidified CO2 atmosphere (5%). One day (24 h±2 h) prior to all experiments with LNCaP cells, the cultivated cells were harvested using a mixture of trypsin/ethylendiaminetetraacetate (0.05%/0.02%) and PBS and centrifuged. After centrifugation, the supernatant was disposed and the cell pellet resuspended in culture medium. Afterwards, cells were counted with a hemocytometer (Neubauer) and seeded in 24-well plates.
Subsequent to the removal of the culture medium, the cells were washed once with DMEM-F12-solution (500 μL, 5% BSA) and left to equilibrate for at least 15 min at 37° C. in DMEM-F12-solution (200 μL, 5% BSA). Afterwards, each well was treated with either DMEM-F12-solution (25 μL, 5% BSA) or 2-PMPA-solution (25 μL, 100 μm) for blockade. […] The experiment was terminated by placing the 24-well plate on ice for 3 min and the consecutive removal of the medium. Each well was rinsed with HBSS (250 μL) and the fractions from these first two steps combined, representing the amount of free radioligand. Removal of surface bound activity was accomplished by incubation of the cells with ice-cold 2-PMPA-solution (250 μL, 10 μm in PBS) for 5 min and subsequent rinsing with ice-cold PBS (250 μL). The internalized activity was determined through incubation of the cells in NaOH (250 μL, 1.0 m) and the combination with the fraction of the subsequent washing step with again NaOH (250 μL, 1.0 m). Each experiment (control and blockade) was performed in triplicate for each time point. Free, surface bound and internalized activity was quantified in a γ-counter.

[2] = Lipophilicity, logP in n-octanol/PBS of radiolabeled PSMA inhibitors; assay type: physicochemical; details: pH 7.4
Procedure: The radiolabeled PSMA inhibitor (0.5 to 1.0 MBq) dissolved in PBS (500 μL, pH=7.4), was added to n-octanol (500 μL) in a reaction vial (1.5 mL), which was rigorously vortexed for 3 min (n=6). For quantitative phase separation, the mixture was centrifuged at 6,000 g for 5 min (Biofuge 15, Heraus Sepatech, Osterode, Germany). The activity from samples of each phase (100 μL) were measured in a γ-counter to obtain the log P(o/w) value.

[3] = target: T1, HSA (Homo sapiens, UniProt P02768); assay: HSA binding on Chiralpak HSA column; assay type: in vitro ADME; details: after logarithmic plotting and calibration (n = 1)
T1 construct: purchased Daicel Chemical Industries / Chiral Technologies Europe (Illkirch, France)
Procedure: HSA binding experiments were performed as previously described. […] For each run, 10 μL of the solution containing the inhibitor was injected into the RP-HPLC system and the retention time measured. […] Non-linear regression was established with OriginPro 2016G.

[4] = system: LNCaP-tumor xenograft; assay: Biodistribution in LNCaP-tumor xenograft bearing CB-17 SCID mice; assay type: in vivo; details: ^177Lu-labeled, n = 4
Procedure: All animal experiments were carried out in accordance with the general animal welfare regulations in Germany (Deutsches Tierschutzgesetz, approval #55.2-1-54-2532-71-13). For the tumor model, LNCaP cells (approx. 10^7 cells) were suspended in serum-free DMEM-F12 medium and Matrigel (1/1; v/v) (BD Biosciences, Germany) and inoculated onto the right shoulder of male, 6 to 8 weeks old CB-17 SCID mice (Charles River Laboratories, Sulzfeld, Germany). Animals were used after the tumor size reached 4 to 8 mm in diameter for experiments.

[5] = distribution coefficient in n-octanol/PBS, radiolabeled inhibitor, mean ± SD (n = 6), read-out: logP

T1 sequence (P02768 25-609): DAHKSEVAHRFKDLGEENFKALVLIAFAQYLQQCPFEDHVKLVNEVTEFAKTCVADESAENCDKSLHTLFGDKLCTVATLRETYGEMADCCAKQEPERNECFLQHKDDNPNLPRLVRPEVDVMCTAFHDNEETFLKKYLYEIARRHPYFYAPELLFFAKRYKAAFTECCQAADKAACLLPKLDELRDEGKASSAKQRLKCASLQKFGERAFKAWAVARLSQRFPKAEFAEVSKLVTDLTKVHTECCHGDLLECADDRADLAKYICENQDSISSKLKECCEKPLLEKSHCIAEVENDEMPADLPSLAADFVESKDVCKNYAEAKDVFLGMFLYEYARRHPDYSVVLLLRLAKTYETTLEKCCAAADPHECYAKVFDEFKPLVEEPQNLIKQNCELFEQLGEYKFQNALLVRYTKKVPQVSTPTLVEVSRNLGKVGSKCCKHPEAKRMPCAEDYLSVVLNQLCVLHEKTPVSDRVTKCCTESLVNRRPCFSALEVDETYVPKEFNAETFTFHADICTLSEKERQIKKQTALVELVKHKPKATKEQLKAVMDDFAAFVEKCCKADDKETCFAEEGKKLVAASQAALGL

SMILES | Internalization [1] [%] | logP [2, 5] | HSA (albumin binding) [3] [%] | tumor ([4]; 1 h p.i.) [% ID/g] | tumor ([4]; 24 h p.i.) [% ID/g] | logP [2]
Nc1ccc(C[C@H](NC(=O)CCC(C(=O)O)N2CCN(CC(=O)O)CCN(CC(=O)O)CCN(CC(=O)O)CC2)C(=O)N[C@H](Cc2ccc(O)cc2)C(=O)N[C@H](Cc2ccc3ccccc3c2)C(=O)N[C@H](CCCCNC(=O)[C@@H](CC(=O)NCCCC(NC(=O)CC[C@H](NC(=O)N[C@@H](CCC(=O)O)C(=O)O)C(=O)O)C(=O)O)NC(=O)c2cc(O)cc(O)c2)C(=O)O)cc1 (some centres unmarked) [PSMA-78, DOTAGA-F(4-NH2)y-2-nal-k(d[N^5-orn-C^4-EuE]-3,5-DHBA)] | 289.0 ± 6.2 |  |  |  |  | 
Nc1ccc(C[C@H](NC(=O)CCC(C(=O)O)N2CCN(CC(=O)O)CCN(CC(=O)O)CCN(CC(=O)O)CC2)C(=O)N[C@H](Cc2ccc(O)cc2)C(=O)N[C@H](Cc2ccc3ccccc3c2)C(=O)N[C@H](CCCCNC(=O)[C@@H](CC(=O)NCCCC(NC(=O)CC[C@H](NC(=O)N[C@@H](CCC(=O)O)C(=O)O)C(=O)O)C(=O)O)NC(=O)c2ccc([N+](=O)[O-])cc2[N+](=O)[O-])C(=O)O)cc1 (some centres unmarked) [PSMA-61, DOTAGA-F(4-NH2)y-2-nal-k(d[N^5-orn-C^4-EuE]-2,4-DNBA)] | 359.5 ± 22.6 | -4.07 ± 0.05 | 63.3 | 8.00±0.75 | 7.70±1.35 | 
O=C(O)CC[C@H](NC(=O)N[C@@H](CCC(=O)NC(CCCNC(=O)CCC(=O)NCCCC[C@@H](NC(=O)[C@@H](Cc1ccc2ccccc2c1)NC(=O)[C@@H](Cc1ccc(O)cc1)NC(=O)CCC(C(=O)O)N1CCN(CC(=O)O)CCN(CC(=O)O)CCN(CC(=O)O)CC1)C(=O)O)C(=O)O)C(=O)O)C(=O)O (some centres unmarked) [PSMA-46, DOTAGA-y-2-nal-k(Suc-N^5-orn-C^4-EuE)] | 216.2 ± 9.2 | -4.21 ± 0.08 | 57.7 |  |  | 
Nc1ccc(C[C@H](NC(=O)CCC(C(=O)O)N2CCN(CC(=O)O)CCN(CC(=O)O)CCN(CC(=O)O)CC2)C(=O)N[C@H](Cc2ccc(O)cc2)C(=O)N[C@H](Cc2ccc3ccccc3c2)C(=O)N[C@H](CCC(=O)Nc2ccc(C(=O)NCCCC(NC(=O)CC[C@H](NC(=O)N[C@@H](CCC(=O)O)C(=O)O)C(=O)O)C(=O)O)cc2)C(=O)O)cc1 (some centres unmarked) [PSMA-60, DOTAGA-F(4-NH2)y-2-nal-e(Abz-N^5-orn-C^4-EuE)] | 267.4 ± 7.9 |  |  |  |  | -3.85 ± 0.13

— patent US11497819B2, “PSMA ligands for imaging and endoradiotherapy” (priority 2017, dated 2022)
